Measurements as given in the supplement of paper PMC10307832.

Columns and labels:
Experiment in all cases: relative viability (nuclei count vs DMSO), 5 days (fraction); higher = more cells survive
NCI-H460 = system: NCI-H460
Outline: (§1)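 Lung cancer cell lines in 1536-well plates got either a single drug or a fixed anchor-drug dose together with five library-drug doses (not always all listed) in √10 steps, by pin tool, on the day after seeding. Nuclei were counted after 5 days, and relative viability is the treated-to-vehicle ratio of nuclei counts. Values are medians of duplicate plates.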

NCI-H1755 = system: NCI-H1755
Outline: as §1

NCI-H1793 = system: NCI-H1793
Outline: as §1

HCC-366 = system: HCC-366
Outline: as §1

NCI-H2228 = system: NCI-H2228
Outline: as §1

NCI-H1651 = system: NCI-H1651
Outline: as §1

LC-2-ad = system: LC-2-ad
Outline: as §1

NCI-H2087 = system: NCI-H2087
Outline: as §1

HCC-78 = system: HCC-78
Outline: as §1

LOU-NH91 = system: LOU-NH91
Outline: as §1

NCI-H2405 = system: NCI-H2405
Outline: as §1

UMC-11 = system: UMC-11
Outline: as §1

NCI-H1395 = system: NCI-H1395
Outline: as §1

ChaGo-K-1 = system: ChaGo-K-1
Outline: as §1

NCI-H3122 = system: NCI-H3122
Outline: as §1

ABC-1 = system: ABC-1
Outline: as §1

NCI-H1944 = system: NCI-H1944
Outline: as §1

NCI-H2170 = system: NCI-H2170
Outline: as §1

RERF-LC-KJ = system: RERF-LC-KJ
Outline: as §1

PC-3 [JPC-3] = system: PC-3 [JPC-3]
Outline: as §1

CAL-12T = system: CAL-12T
Outline: as §1

LU99A = system: LU99A
Outline: as §1

COc1nc(C)cnc1NS(=O)(=O)c1cccnc1-c1ccc(-c2nnco2)cc1 [Zibotentan] + O=C(CCCCCCC(=O)Nc1ccccc1)NO [Vorinostat] (partner 1 µM)
relative viability (NCI-H460; first compound 0.08 µM): 0.673
relative viability (NCI-H460; first compound 0.253 µM): 0.541
relative viability (NCI-H460; first compound 0.8 µM): 0.739
relative viability (NCI-H460; first compound 2.53 µM): 0.719
relative viability (NCI-H1755; first compound 0.08 µM): 0.851
relative viability (NCI-H1755; first compound 0.253 µM): 0.742
relative viability (NCI-H1755; first compound 0.8 µM): 0.803
relative viability (NCI-H1755; first compound 2.53 µM): 0.818
relative viability (NCI-H1793; first compound 0.08 µM): 0.673
relative viability (NCI-H1793; first compound 0.253 µM): 0.673
relative viability (NCI-H1793; first compound 0.8 µM): 0.925
relative viability (NCI-H1793; first compound 2.53 µM): 0.973
relative viability (HCC-366; first compound 0.08 µM): 0.461
relative viability (HCC-366; first compound 0.253 µM): 0.248
relative viability (HCC-366; first compound 0.8 µM): 0.21
relative viability (HCC-366; first compound 2.53 µM): 0.358
relative viability (NCI-H2228; first compound 0.08 µM): 0.805
relative viability (NCI-H2228; first compound 0.253 µM): 0.719
relative viability (NCI-H2228; first compound 0.8 µM): 0.613
relative viability (NCI-H2228; first compound 2.53 µM): 0.92
relative viability (NCI-H1651; first compound 0.08 µM): 0.543
relative viability (NCI-H1651; first compound 0.253 µM): 0.492
relative viability (NCI-H1651; first compound 0.8 µM): 0.559
relative viability (NCI-H1651; first compound 2.53 µM): 0.461
relative viability (LC-2-ad; first compound 0.08 µM): 0.751
relative viability (LC-2-ad; first compound 0.253 µM): 0.723
relative viability (LC-2-ad; first compound 0.8 µM): 0.739
relative viability (LC-2-ad; first compound 2.53 µM): 0.731
relative viability (NCI-H2087; first compound 0.08 µM): 0.719
relative viability (NCI-H2087; first compound 0.253 µM): 0.679
relative viability (NCI-H2087; first compound 0.8 µM): 0.752
relative viability (NCI-H2087; first compound 2.53 µM): 0.732
relative viability (HCC-78; first compound 0.08 µM): 0.482
relative viability (HCC-78; first compound 0.253 µM): 0.347
relative viability (HCC-78; first compound 0.8 µM): 0.382
relative viability (HCC-78; first compound 2.53 µM): 0.48
relative viability (LOU-NH91; first compound 0.08 µM): 0.941
relative viability (LOU-NH91; first compound 0.253 µM): 0.78
relative viability (LOU-NH91; first compound 0.8 µM): 0.953
relative viability (LOU-NH91; first compound 2.53 µM): 0.947
relative viability (NCI-H2405; first compound 0.08 µM): 1.25
relative viability (NCI-H2405; first compound 0.253 µM): 0.829
relative viability (NCI-H2405; first compound 0.8 µM): 0.957
relative viability (NCI-H2405; first compound 2.53 µM): 1.12
relative viability (UMC-11; first compound 0.08 µM): 0.408
relative viability (UMC-11; first compound 0.253 µM): 0.418
relative viability (UMC-11; first compound 0.8 µM): 0.384
relative viability (UMC-11; first compound 2.53 µM): 0.293
relative viability (NCI-H1395; first compound 0.08 µM): 0.809
relative viability (NCI-H1395; first compound 0.253 µM): 0.502
relative viability (NCI-H1395; first compound 0.8 µM): 0.698
relative viability (NCI-H1395; first compound 2.53 µM): 0.951
relative viability (ChaGo-K-1; first compound 0.08 µM): 0.802
relative viability (ChaGo-K-1; first compound 0.253 µM): 0.764
relative viability (ChaGo-K-1; first compound 0.8 µM): 0.713
relative viability (ChaGo-K-1; first compound 2.53 µM): 0.815
relative viability (NCI-H3122; first compound 0.08 µM): 1.05
relative viability (NCI-H3122; first compound 0.253 µM): 1.03
relative viability (NCI-H3122; first compound 0.8 µM): 1.02
relative viability (NCI-H3122; first compound 2.53 µM): 1.02
relative viability (ABC-1; first compound 0.08 µM): 1.01
relative viability (ABC-1; first compound 0.253 µM): 0.77
relative viability (ABC-1; first compound 0.8 µM): 1.05
relative viability (ABC-1; first compound 2.53 µM): 1.53
relative viability (NCI-H1944; first compound 0.08 µM): 0.674
relative viability (NCI-H1944; first compound 0.253 µM): 0.533
relative viability (NCI-H1944; first compound 0.8 µM): 0.508
relative viability (NCI-H1944; first compound 2.53 µM): 0.631
relative viability (NCI-H2170; first compound 0.08 µM): 0.883
relative viability (NCI-H2170; first compound 0.253 µM): 0.778
relative viability (NCI-H2170; first compound 0.8 µM): 0.875
relative viability (NCI-H2170; first compound 2.53 µM): 0.908
relative viability (RERF-LC-KJ; first compound 0.08 µM): 0.847
relative viability (RERF-LC-KJ; first compound 0.253 µM): 0.541
relative viability (RERF-LC-KJ; first compound 0.8 µM): 0.74
relative viability (RERF-LC-KJ; first compound 2.53 µM): 0.679
relative viability (PC-3 [JPC-3]; first compound 0.08 µM): 1.19
relative viability (PC-3 [JPC-3]; first compound 0.253 µM): 0.561
relative viability (PC-3 [JPC-3]; first compound 0.8 µM): 0.72
relative viability (PC-3 [JPC-3]; first compound 2.53 µM): 0.867
relative viability (CAL-12T; first compound 0.08 µM): 0.887
relative viability (CAL-12T; first compound 0.253 µM): 0.543
relative viability (CAL-12T; first compound 0.8 µM): 0.742
relative viability (CAL-12T; first compound 2.53 µM): 0.714
relative viability (LU99A; first compound 0.08 µM): 0.514
relative viability (LU99A; first compound 0.253 µM): 0.537
relative viability (LU99A; first compound 0.8 µM): 0.463
relative viability (LU99A; first compound 2.53 µM): 0.477
